Data taken from PMC8247773, “Benzohydrazide and Phenylacetamide Scaffolds: New Putative ParE Inhibitors” (Frontiers in Bioengineering and Biotechnology, 2021).
In brackets after ≈: the same amount, converted by molar mass. Like-named read-outs stand apart in the source and are kept apart here.

Experiments:
E. coli [1] = assay: Post antibiotic effect (PAE); format: cell-based, Escherichia coli; conditions: for Time for 1 log10: untreated control 2 h
[2] = test system: Staphylococcus epidermis (NCIM 2493); design: method as in Yele et al., 2020, 2021; conditions: ref Yele et al., 2020, 2021; cited from earlier work
MRSA (ATCC43300) [3] = assay: Antibacterial susceptibility test, microbroth dilution MIC; format: cell-based, methicillin-resistant Staphylococcus aureus; conditions: mean ± SD; for MIC: Staphylococcus aureus, read-out: Minimum inhibitory concentration
[4] = test system: preformed E. coli biofilm (NCIM 2065); assay: E. coli antibiofilm activity (crystal violet); format: cell-based, Escherichia coli; conditions: 10× MIC, 24 h
E. coli [5] = assay: Checkerboard synergy with FDA approved drugs; format: cell-based, Escherichia coli
MRSA (NCIM 5021) [6] = assay: Antibacterial susceptibility test, microbroth dilution MIC; format: cell-based, methicillin-resistant Staphylococcus aureus; conditions: mean ± SD; for MIC: Staphylococcus aureus, read-out: Minimum inhibitory concentration
[7] = test system: Escherichia coli (NCIM 2065); assay: as above; format: cell-based; conditions: E. Coli (NCIM 2065), mean ± SD; for MIC: Escherichia coli, NCIM2065, read-out: Minimum inhibitory concentration
[8] = test system: Bacillus subtilis (NCIM 2545); design: method as in Yele et al., 2020, 2021; conditions: ref Yele et al., 2020, 2021; cited from earlier work
[9] = test system: Mycobacterium tuberculosis (NCIM 2984); design: method as in Yele et al., 2020, 2021; conditions: ref Yele et al., 2020, 2021; cited from earlier work
[10] = test system: Pseudomonas aeruginosa (NCIM 2036); design: method as in Yele et al., 2020, 2021; conditions: ref Yele et al., 2020, 2021; cited from earlier work
[11] = test system: Escherichia coli (NCIM 2567); design: method as in Yele et al., 2020, 2021; conditions: ref Yele et al., 2020, 2021; cited from earlier work
[12] = test system: Staphylococcus aureus (NCIM 5022); design: method as in Yele et al., 2020, 2021; conditions: ref Yele et al., 2020, 2021; cited from earlier work
[13] = test system: Klebsiella pneumonia (NCIM 2706); design: method as in Yele et al., 2020, 2021; conditions: ref Yele et al., 2020, 2021; cited from earlier work
[14] = test system: Salmonella typhi (NCIM 2501); design: method as in Yele et al., 2020, 2021; conditions: ref Yele et al., 2020, 2021; cited from earlier work
[15] = test system: Escherichia coli (NCIM 2065); assay: Minimum bactericidal concentration (MBC); format: cell-based; conditions: E. Coli (NCIM 2065); for MBC/MIC: ratio ≤2 bactericidal, ≥4 tolerance
Description: (§1) MBC can be defined as the minimum concentration of a compound required to kill the bacteria over a fixed period under precise conditions. […] Colonies were counted, and colony forming unit (CFU) per milliliter was calculated.

Vero cells [16] = test system: Vero cells
E. coli ParE enzyme = target: T1, E. coli ParE enzyme (Escherichia coli, UniProt P20083); assay: E. coli ParE ATPase enzyme inhibition assay (ProFoldin kit, malachite green); format: biochemical; conditions: ATPase activity, mean ± SD (n = 3); for IC50: read-out: IC50 against E. coli ParE enzyme (converted)
T1 construct: purchased ProFoldin, Hudson, United States
T1 sequence (P20083 whole entry): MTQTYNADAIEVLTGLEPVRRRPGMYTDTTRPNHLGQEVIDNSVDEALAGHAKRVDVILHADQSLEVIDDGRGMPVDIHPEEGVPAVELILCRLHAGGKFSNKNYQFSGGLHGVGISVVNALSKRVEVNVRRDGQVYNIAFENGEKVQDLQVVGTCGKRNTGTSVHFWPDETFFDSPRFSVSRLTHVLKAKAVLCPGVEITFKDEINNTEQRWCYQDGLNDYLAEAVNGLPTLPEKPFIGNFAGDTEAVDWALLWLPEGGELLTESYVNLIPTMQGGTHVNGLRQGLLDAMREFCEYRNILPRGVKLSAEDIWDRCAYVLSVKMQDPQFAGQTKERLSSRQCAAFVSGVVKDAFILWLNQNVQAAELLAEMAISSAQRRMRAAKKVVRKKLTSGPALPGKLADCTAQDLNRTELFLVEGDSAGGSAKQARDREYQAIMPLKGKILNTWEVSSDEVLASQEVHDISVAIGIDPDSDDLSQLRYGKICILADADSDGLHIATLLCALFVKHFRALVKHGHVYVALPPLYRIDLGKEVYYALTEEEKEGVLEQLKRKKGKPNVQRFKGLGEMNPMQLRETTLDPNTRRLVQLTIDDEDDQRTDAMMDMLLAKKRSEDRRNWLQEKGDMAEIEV
T1 sequence (P0AFI2 whole entry, further chain): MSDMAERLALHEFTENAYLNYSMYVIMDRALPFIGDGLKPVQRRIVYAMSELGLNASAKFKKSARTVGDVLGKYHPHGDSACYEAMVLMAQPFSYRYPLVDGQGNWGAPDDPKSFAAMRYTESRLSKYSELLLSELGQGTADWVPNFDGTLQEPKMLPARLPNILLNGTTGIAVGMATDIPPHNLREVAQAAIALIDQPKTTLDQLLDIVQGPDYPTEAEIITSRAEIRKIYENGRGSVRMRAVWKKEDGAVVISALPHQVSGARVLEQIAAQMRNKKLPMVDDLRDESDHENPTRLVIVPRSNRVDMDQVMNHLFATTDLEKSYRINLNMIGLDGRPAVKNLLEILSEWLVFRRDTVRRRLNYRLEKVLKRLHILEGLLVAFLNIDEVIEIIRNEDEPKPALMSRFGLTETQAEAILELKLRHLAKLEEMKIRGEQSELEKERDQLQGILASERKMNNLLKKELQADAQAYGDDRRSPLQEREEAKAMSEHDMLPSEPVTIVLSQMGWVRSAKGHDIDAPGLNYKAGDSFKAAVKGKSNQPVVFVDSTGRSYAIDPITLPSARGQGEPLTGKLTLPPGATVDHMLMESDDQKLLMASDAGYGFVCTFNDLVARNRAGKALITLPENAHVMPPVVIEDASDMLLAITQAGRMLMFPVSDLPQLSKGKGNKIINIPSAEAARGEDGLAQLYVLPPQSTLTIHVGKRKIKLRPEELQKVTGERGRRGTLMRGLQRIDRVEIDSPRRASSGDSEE
Summary of the method: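 E. coli ParE ATPase activity measured as inorganic phosphate released from ATP hydrolysis in the presence of DNA. Reaction ran 1 h at 37°C, quenched with malachite green dye, absorbance read at 650 nm after 5 min. IC50 from non-linear regression against no-enzyme and no-compound controls.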

MRSA (NCIM 5021) [17] = assay: Minimum bactericidal concentration (MBC); format: cell-based, methicillin-resistant Staphylococcus aureus
Description: as §1

MRSA (ATCC43300) [18] = assay: Minimum bactericidal concentration (MBC); format: cell-based, methicillin-resistant Staphylococcus aureus
Description: as §1

Vero cells [19] = assay: In vitro cytotoxicity MTT assay; conditions: CC50 Vero cells / IC50
[20] = In vitro cytotoxicity MTT assay; conditions: African green monkey, Vero cells
[21] = Escherichia coli, NCIM2065, read-out: MBC
[22] = Staphylococcus aureus, read-out: MBC

Structure (SMILES) | Minimum inhibitory concentration (MIC) S. e [2] | MIC (MRSA (ATCC43300) [3]) [µg/mL] | MIC (MRSA (NCIM 5021) [6]) [µg/mL] | MIC [7] [µg/mL] | Minimum inhibitory concentration (MIC) B. s [8] | Minimum inhibitory concentration (MIC) M. t [9] | Minimum inhibitory concentration (MIC) P. a [10] | Minimum inhibitory concentration (MIC) E. c [11] | Minimum inhibitory concentration (MIC) S. a [12] | Minimum inhibitory concentration (MIC) K. p [13] | Minimum inhibitory concentration (MIC) S. t [14] | MBC [15] [µg/mL] | MBC/MIC [15] | Minimum inhibitory concentration (MRSA (ATCC43300) [3]) [µg/mL] | IC50 against E. coli ParE enzyme (E. coli ParE enzyme) [µg/mL] | Minimum inhibitory concentration (MRSA (NCIM 5021) [6]) [µg/mL] | Minimum inhibitory concentration [7] [µg/mL] | MBC (MRSA (NCIM 5021) [17]) [µg/mL] | MBC/MIC (MRSA (NCIM 5021) [17]) | MBC/MIC (MRSA (ATCC43300) [18]) | further results
O=C(O)c1cn(C2CC2)c2cc(N3CCNCC3)c(F)cc2c1=O [Ciprofloxacin] | 0.74 | 0.7 ± 0.03 (≈ 2.11 µM) | 0.67 ± 0.02 (≈ 2.02 µM) | 0.62 ± 0.015 (≈ 1.87 µM) | 0.81 | 0.60 | 0.67 | 0.97 | 0.68 | 0.63 |  |  |  |  |  |  |  |  |  |  | PAE = T - C (E. coli [1]; 1 × mic): 1 h; Time for 1 log10 (E. coli [1]; 1 × mic): 3 h; PAE = T - C (E. coli [1]; 10 × mic): 2 h; Time for 1 log10 (E. coli [1]; 10 × mic): 4 h; reduction in biofilm [4]: 86%; FIC B (E. coli [5]; FIC of the drug in combination with compound 5): 0.1556; FIC B (E. coli [5]; FIC of the drug in combination with compound 21): 0.1589; Inference (E. coli [5]; drug combined with compound 5): Synergistic (synergistic when the ΣFICs is ≤ 0.5); ΣFIC A + FIC B (E. coli [5]; drug combined with compound 5): 0.3162; Inference (E. coli [5]; drug combined with compound 21): Synergistic (synergistic when the ΣFICs is ≤ 0.5); ΣFIC A + FIC B (E. coli [5]; drug combined with compound 21): 0.3614
O=C(COc1ccccc1NC(=O)CCl)Nc1ccc(C(=O)O)cc1 [Compound 3] | 3.04 |  |  |  | 6.30 | 2.31 | 0.67 | 0.82 | 4.23 | 0.75 | 1.52 | 1.75 ± 0.09 (≈ 4.82 µM) | 1 | 1.79 ± 0.21 (≈ 4.93 µM) | 0.95 ± 0.09 (≈ 2.62 µM) | 1.84 ± 0.13 (≈ 5.07 µM) | 1.81 ± 0.15 (≈ 4.99 µM) | 1.84 ± 0.13 (≈ 5.07 µM) | 1 | 1 | CC50 (Vero cells [16]): 178.8742 µg/mL (≈ 493 µM); MBC (MRSA (ATCC43300) [18]): 1.79 ± 0.21 µg/mL (≈ 4.93 µM); SI (CC50/IC50) (Vero cells [19]): 188.2886
O=C(CCl)Nc1ccccc1OCC(=O)Nc1ccc(C(=O)O)cc1[N+](=O)[O-] [Compound 8] | 4.83 | 1.06 ± 0.12 (≈ 2.6 µM) | 0.66 (≈ 1.62 µM) | 0.93 ± 0.03 (≈ 2.28 µM) | 7.80 | 1.38 | 0.69 | 0.70 | 8.64 | 0.72 | 0.72 |  | 1 |  |  | 0.66 ± 0.13 (≈ 1.62 µM) |  |  | 1 | 2 | MBC [15, 21]: 0.93 ± 0.03 µg/mL (≈ 2.28 µM); IC50 (E. coli ParE enzyme): 662 nM; MBC (MRSA (NCIM 5021) [17]; [22]): 0.63 ± 0.13 µg/mL (≈ 1.55 µM); MBC (MRSA (ATCC43300) [18]; [22]): 2.46 ± 0.12 µg/mL (≈ 6.03 µM); CC50 at 48 h [20]: 257 µg/mL (≈ 630 µM)
Cc1ccc(C(=O)NNC(=O)COc2ccccc2NC(=O)CCl)cc1 [Compound 12] | 2.35 |  |  |  | 3.72 | 3.21 | 1.45 | 1.26 | 3.12 | 0.67 | 1.98 | 0.86 ± 0.03 (≈ 2.29 µM) | 1 | 0.96 ± 0.14 (≈ 2.55 µM) | 2.34 (≈ 6.23 µM) | 2.65 ± 0.46 (≈ 7.05 µM) | 0.86 ± 0.03 (≈ 2.29 µM) | 4.4 ± 0.15 (≈ 11.7 µM) | 2 | 1 | MBC (MRSA (ATCC43300) [18]): 0.96 ± 0.14 µg/mL (≈ 2.55 µM)
Cc1ccc(C(=O)NNC(=O)COc2ccc3ccccc3c2)cc1 [Compound 22] | 1.04 |  |  |  | 3.63 | 0.89 | 0.82 | 1.23 | 1.16 | 0.81 | 0.77 | 0.89 ± 0.01 (≈ 2.66 µM) | 1 | 0.76 ± 0.06 (≈ 2.27 µM) | 1.01 (≈ 3.02 µM) | 0.90 ± 0.04 (≈ 2.69 µM) | 0.89 ± 0.01 (≈ 2.66 µM) | 0.90 ± 0.04 (≈ 2.69 µM) | 1 | 1 | MBC (MRSA (ATCC43300) [18]): 0.76 ± 0.06 µg/mL (≈ 2.27 µM)
O=C(CSc1nc2ccccc2s1)Nc1ccc(C(=O)O)cc1[N+](=O)[O-] [Compound 25] | 0.79 | 1.11 ± 0.12 (≈ 2.85 µM) | 0.86 ± 0.13 (≈ 2.21 µM) | 0.72 (≈ 1.85 µM) | 1.72 | 5.17 | 2.60 | 3.86 | 0.85 | 1.86 |  |  | 3 |  |  |  | 0.72 ± 0.05 (≈ 1.85 µM) |  | 3 |  | MBC [15, 21]: 7.09 ± 0.02 µg/mL (≈ 18.2 µM); IC50 (E. coli ParE enzyme): 719 nM; MBC (MRSA (NCIM 5021) [17]; [22]): 8.37 ± 0.17 µg/mL (≈ 21.5 µM); CC50 at 48 h [20]: 194 µg/mL (≈ 498 µM)
CC1(C)S[C@@H]2[C@H](NC(=O)[C@H](N)c3ccccc3)C(=O)N2[C@H]1C(=O)O [ampicillin] |  |  |  |  |  |  |  |  |  |  |  |  |  |  |  |  |  |  |  |  | reduction in biofilm [4]: 63%
